{"source": "patent US10941399B2", "about": "“Methods and compositions for gene-specific demethylation by DNA methyltransferase (DNMT)-RNA interaction” (Beth Israel Deaconess Medical Center, Inc., priority 2011, dated 2021)", "target": "DNMT1 (Homo sapiens, UniProt P26358)", "sequence (P26358 whole entry)": "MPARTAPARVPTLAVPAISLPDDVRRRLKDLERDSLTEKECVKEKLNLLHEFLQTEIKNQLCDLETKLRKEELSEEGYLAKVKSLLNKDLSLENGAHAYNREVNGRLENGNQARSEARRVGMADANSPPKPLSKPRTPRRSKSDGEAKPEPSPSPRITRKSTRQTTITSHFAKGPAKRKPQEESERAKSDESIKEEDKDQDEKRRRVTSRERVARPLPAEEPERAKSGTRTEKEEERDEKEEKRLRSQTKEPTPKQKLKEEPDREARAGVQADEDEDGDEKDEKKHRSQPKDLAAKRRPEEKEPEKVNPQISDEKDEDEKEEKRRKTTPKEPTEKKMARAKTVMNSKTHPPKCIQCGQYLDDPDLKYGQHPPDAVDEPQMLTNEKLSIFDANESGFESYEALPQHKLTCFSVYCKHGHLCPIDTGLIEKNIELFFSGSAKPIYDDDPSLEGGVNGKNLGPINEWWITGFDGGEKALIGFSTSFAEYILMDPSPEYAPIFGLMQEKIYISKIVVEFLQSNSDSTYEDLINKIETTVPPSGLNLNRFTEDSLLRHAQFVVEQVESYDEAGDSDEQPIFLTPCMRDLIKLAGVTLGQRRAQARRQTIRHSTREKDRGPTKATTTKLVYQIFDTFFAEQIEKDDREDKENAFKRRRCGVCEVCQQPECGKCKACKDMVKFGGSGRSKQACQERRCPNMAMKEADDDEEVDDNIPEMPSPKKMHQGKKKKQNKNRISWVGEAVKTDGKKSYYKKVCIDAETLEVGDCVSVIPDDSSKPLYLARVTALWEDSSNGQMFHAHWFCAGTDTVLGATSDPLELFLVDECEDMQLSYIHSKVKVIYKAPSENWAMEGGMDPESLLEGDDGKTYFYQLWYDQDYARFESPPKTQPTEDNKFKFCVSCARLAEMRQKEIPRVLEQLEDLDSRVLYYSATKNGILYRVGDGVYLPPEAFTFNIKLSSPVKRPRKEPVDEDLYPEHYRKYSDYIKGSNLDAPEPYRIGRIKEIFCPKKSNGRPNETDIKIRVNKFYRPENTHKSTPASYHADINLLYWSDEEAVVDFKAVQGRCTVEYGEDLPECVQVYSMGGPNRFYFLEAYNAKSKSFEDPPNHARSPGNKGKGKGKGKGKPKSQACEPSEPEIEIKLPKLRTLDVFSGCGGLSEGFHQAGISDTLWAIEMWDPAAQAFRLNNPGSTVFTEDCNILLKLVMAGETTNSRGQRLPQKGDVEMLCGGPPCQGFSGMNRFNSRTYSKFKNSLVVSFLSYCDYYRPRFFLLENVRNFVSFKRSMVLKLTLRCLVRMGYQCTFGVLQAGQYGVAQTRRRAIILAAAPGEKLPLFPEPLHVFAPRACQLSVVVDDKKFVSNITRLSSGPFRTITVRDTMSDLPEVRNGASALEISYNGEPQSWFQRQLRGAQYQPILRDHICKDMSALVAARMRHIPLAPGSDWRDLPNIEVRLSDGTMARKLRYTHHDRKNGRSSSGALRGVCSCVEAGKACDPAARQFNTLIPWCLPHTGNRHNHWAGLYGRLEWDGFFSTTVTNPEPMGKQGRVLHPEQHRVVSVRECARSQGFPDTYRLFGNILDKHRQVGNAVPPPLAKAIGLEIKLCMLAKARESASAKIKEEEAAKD", "assay": "Nuclear RNA immunoprecipitation (RIP) with anti-DNMT1 antibody", "type": "binding", "design": "endogenous in cells; host or cells: HL-60 cells (nuclei); Similar results were obtained in U937 cells", "details": "HL-60 cells", "procedure": "Nuclear RNA immunoprecipitation (nRIP): nRIP performed as described by Ebralidze et al. (Science 303:383-387, 2004) with some modifications. Crosslinked nuclei were collected as follows: About 60×10^6 HL-60 cells were crosslinked with 1% formaldehyde (formaldehyde solution, freshly made 50 mM HEPES-KOH; 100 mM NaCl; 1 mM EDTA; 0.5 mM EGTA; 11% formaldehyde) for 10 minutes at room temperature. Crosslinking was halted by adding 1/10th volume of 2.66 M Glycine, kept for 5 minutes at room temperature and 10 minutes on ice. Cell pellets were washed twice with ice-cold PBS (freshly supplemented with 1 mM PMSF) and then resuspended in cell lysis buffer (volume=4 mL, 1× Buffer of 10 mM Tris pH 7.4; 10 mM NaCl; 0.5% NP-40, freshly supplemented with protease inhibitors (protease inhibitors cocktail: Roche Applied Science, Cat. No. 1836153, 1 tablet with 375 μL H2O; add as ×100), 1 mM PMSF, and 2 mM vanadyl complex (NEB)). Cells were incubated at 0° C. for 10-15 minutes and homogenized by Dounce (10 strokes pestle A and 40 strokes pestle B). Nuclei were recovered by centrifugation at 2,000 rpm for 10 minutes at 4° C. Nuclei were resuspended in 3 ml 1× Resuspension Buffer (50 mM HEPES-NaOH, pH 7.4; 10 mM MgCl2) supplemented with 1 mM PMSF and 2 mM vanadyl complex. […]"}
{"substance": "ecRNA: endogenous ~5 kb non-polyadenylated nuclear extra-coding transcript of the C/EBPa locus (SEQ ID NO:8)", "values": [{"measurement": "enrichment in DNMT1-RNA precipitates compared to IgG control", "result": "> 60", "unit": "fold"}]}
